Test results reported in patent US7053097B1, “Inhibitors of glycogen synthase 3 kinase” (Chiron Corporation, priority 1996, dated 2006).

Target: GSK-3β (Homo sapiens, UniProt P49841)
Assay: GSK3 kinase inhibition assay, biotin-phosphopeptide substrate, streptavidin plate scintillation counting
Type: biochemical
Conditions: compound at 1 μM; 180 min at room temperature
Protocol: (B) The compounds prepared in Example 1 above were assayed for activity as follows:
A 96-well round bottom plate was blocked by incubation with 400 μl/well 1% BSA/PBS for 60 min at room temperature. The blocking reagent was then aspirated. An enzyme/substrate buffer was prepared (1.225 ml 1M Tris-HCl, pH 7.5, 0.41 ml 1M MgCl2, 41 μl DTT, 250 μl 500 μg/ml GSK-3β, 9.5 μl 5 mg/ml biotin-phosphopeptide, 33.1 ml 1% BSA/PBS), and 300 μl enzyme/substrate/buffer was added to each well.
Varying concentrations of each compound were added to individual wells, or staurosporine in DMSO (final concentrations of staurosporine 100 nM or 20 nM). Next 50 μl/well ATP mixture (3.85 μl 10 mM cold ATP, 8 μl hot ATP, 5.5 ml H2O) was added, and the reaction allowed to proceed for 180 min at room temperature.
Three streptavidin-coated Labsystems Combiplate 8 plates were blocked with 1% BSA/PBS, 300 μl/well, for ≧60 min at room temperature, and the blocking reagent aspirated. Stopping reagent (50 μM ATP, 20 mM EDTA) (100 μl/well) was added to the streptavidin-coated plates, and 100 μl of the enzyme reaction mixture transferred to the streptavidin-coated plates in triplicate. […] Finally, Microscint-20 scintillation fluid (200 μl/well) was added to the plates, the plates sealed, and after incubating for 30 min, counted on a TopCount counter.

GSK-3β, sequence (P49841 whole entry, species assumed): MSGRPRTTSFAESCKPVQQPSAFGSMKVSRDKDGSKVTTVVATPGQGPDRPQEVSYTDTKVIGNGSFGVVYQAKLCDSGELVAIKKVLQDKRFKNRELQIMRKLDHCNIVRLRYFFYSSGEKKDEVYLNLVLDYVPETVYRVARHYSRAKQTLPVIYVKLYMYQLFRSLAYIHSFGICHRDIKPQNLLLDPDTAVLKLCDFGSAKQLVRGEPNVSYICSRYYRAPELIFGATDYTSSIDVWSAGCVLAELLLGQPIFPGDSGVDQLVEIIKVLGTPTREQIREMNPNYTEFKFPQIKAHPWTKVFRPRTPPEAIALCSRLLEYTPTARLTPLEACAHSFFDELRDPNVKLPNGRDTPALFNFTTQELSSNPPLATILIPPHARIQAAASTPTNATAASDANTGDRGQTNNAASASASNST

Question: COCC(=O)N(CC(N)=O)c1nc(NCc2ccc(C(F)(F)F)cc2)c2ncn(C)c2n1 [Compound 21208] was tested. Which inhibition at 1 µM did it give?
Answer: The inhibition at 1 µM was 63%.
